Columns and labels:
[1] = biological target: T1, Nuclear receptor subfamily 1 group I member 3 (Homo sapiens, UniProt Q14994); assay: Inhibition of GST-tagged human CAR LBD at 90 uM incubated for 90 mins in presence of Cy5-PGC1-alpha by HTRF co-activator assay relative to control; details: 1.5 h, read-out: Imax
T1 sequence (Q14994 whole entry): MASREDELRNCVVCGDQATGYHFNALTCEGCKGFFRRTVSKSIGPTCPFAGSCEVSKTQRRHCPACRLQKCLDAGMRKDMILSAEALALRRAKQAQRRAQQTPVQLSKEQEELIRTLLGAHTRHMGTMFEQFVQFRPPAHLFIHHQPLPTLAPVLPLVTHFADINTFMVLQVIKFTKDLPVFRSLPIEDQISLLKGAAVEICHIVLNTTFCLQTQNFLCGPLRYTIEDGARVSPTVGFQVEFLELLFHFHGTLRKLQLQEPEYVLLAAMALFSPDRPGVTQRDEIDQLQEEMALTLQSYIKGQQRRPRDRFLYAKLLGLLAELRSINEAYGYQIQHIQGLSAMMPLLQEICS

[2] = biological target: T2, Calcium/calmodulin-dependent protein kinase kinase 2 (Homo sapiens, UniProt Q96RR4); assay: Inhibition of GST-tagged human CAMKK2 incubated for 90 mins by TR-FRET assay
Target sequence in this assay (Q96RR4 whole entry): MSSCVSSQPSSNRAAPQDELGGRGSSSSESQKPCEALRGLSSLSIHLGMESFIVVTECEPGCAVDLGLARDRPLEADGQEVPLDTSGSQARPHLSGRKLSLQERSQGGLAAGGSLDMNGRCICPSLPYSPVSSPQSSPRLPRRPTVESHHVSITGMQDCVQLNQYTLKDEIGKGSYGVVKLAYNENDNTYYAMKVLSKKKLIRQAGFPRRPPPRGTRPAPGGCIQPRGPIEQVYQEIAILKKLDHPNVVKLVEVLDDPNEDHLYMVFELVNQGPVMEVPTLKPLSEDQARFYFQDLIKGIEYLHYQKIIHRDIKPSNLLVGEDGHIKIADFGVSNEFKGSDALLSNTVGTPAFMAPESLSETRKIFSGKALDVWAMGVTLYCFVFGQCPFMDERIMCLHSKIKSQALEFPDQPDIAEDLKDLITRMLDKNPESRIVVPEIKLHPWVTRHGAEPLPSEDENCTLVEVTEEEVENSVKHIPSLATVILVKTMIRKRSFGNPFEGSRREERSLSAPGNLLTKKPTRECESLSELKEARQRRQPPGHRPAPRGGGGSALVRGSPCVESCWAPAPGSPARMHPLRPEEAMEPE

[3] = biological target: T3, Mitogen-activated protein kinase 15 (Homo sapiens, UniProt Q8TD08); assay: Inhibition of Flag/His-tagged human MAPK15 incubated for 90 mins by TR-FRET assay
T3 sequence (Q8TD08 whole entry): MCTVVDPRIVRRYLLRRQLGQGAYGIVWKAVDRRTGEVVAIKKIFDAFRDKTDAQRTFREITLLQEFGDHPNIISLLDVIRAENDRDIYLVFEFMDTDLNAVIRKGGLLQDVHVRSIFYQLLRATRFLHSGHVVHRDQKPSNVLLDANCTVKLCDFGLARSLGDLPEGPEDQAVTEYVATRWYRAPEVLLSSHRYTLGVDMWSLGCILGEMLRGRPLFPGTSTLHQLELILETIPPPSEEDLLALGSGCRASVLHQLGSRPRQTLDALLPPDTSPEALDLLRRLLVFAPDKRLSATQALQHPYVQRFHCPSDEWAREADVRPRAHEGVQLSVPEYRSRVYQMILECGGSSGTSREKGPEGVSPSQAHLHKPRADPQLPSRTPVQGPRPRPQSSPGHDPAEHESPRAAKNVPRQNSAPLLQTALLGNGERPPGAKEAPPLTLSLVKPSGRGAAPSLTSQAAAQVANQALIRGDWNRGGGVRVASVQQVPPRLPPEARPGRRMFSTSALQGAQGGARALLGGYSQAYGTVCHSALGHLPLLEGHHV

[4] = biological target: Glycogen synthase kinase-3 alpha (Homo sapiens, UniProt P49840); assay: Inhibition of GST-tagged human GSK3A incubated for 90 mins by TR-FRET assay
[5] = biological target: T1, Nuclear receptor subfamily 1 group I member 3; assay: Inhibition of GST-tagged human CAR LBD at 100 uM incubated for 90 mins by TR-FRET assay relative to control; details: 1.5 h, read-out: Imax
[6] = biological target: T1, Nuclear receptor subfamily 1 group I member 3; assay: Inhibition of GST-tagged human CAR LBD incubated for 90 mins in presence of Cy5-PGC1-alpha by HTRF co-activator assay
[7] = biological target: T1, Nuclear receptor subfamily 1 group I member 3; assay: Inhibition of GST-tagged human CAR LBD incubated for 90 mins by TR-FRET assay
[8] = biological target: CDK9/cyclin T1 (Homo sapiens, UniProt P50750); assay: Inhibition of His-tagged human CDK9/CycT1 incubated for 90 mins by TR-FRET assay; type: protein-complex assay
[9] = biological target: T4, Peripheral plasma membrane protein CASK (Homo sapiens) (UniProt O14936); assay: Inhibition of GST-tagged human CASK at 30 uM incubated for 90 mins by TR-FRET assay relative to control
T4 sequence (whole entry): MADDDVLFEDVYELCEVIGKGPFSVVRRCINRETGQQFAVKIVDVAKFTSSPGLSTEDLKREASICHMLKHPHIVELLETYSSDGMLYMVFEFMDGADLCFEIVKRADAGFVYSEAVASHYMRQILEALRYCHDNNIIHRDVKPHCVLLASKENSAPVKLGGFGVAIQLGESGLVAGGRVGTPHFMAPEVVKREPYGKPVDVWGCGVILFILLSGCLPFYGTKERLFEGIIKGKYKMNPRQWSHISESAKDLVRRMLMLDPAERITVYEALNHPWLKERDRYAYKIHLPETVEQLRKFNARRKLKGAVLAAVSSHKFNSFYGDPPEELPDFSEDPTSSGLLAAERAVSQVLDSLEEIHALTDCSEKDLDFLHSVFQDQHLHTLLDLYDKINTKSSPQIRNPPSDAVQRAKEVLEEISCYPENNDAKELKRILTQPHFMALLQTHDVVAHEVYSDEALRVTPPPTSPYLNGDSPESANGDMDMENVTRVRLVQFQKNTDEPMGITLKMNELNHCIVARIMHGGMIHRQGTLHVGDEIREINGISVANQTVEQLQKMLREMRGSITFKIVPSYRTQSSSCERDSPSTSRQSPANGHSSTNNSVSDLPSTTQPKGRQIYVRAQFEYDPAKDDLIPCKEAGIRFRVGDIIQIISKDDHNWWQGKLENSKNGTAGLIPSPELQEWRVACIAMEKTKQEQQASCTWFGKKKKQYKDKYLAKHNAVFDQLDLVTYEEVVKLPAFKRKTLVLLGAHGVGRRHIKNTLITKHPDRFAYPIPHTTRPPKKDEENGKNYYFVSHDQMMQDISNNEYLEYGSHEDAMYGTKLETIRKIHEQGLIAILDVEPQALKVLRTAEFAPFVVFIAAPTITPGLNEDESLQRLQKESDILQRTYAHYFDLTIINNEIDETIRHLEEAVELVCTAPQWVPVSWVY

[10] = biological target: CDK9/cyclin T1 (Homo sapiens) (UniProt O60563+P50750); assay: Inhibition of His-tagged human CDK9/CycT1 incubated for 90 mins by TR-FRET assay relative to control; type: protein-complex assay
[11] = biological target: T2, Calcium/calmodulin-dependent protein kinase kinase 2; assay: Binding affinity to GST-tagged human CAMKK2 assessed as fold change in FRET signal at 30 uM incubated for 90 mins by TR-FRET assay relative to control
Target sequence in this assay (Q96RR4 2-588 limits assumed): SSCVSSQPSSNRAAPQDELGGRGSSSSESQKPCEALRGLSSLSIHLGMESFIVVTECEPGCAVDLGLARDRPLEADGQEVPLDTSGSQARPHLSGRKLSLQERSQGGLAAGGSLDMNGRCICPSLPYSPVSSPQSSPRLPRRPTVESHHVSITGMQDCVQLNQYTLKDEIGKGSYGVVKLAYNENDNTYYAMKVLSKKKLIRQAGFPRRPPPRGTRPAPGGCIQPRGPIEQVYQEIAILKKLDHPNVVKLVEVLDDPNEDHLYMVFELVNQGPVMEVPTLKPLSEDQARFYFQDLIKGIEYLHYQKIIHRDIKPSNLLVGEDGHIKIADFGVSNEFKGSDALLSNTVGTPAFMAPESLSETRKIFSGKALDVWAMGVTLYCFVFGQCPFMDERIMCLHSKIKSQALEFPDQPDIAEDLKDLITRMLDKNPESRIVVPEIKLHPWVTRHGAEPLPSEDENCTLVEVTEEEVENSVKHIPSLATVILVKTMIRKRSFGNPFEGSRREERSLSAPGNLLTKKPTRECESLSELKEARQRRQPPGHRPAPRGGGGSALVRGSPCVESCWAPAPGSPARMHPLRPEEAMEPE

Chain of Glycogen synthase kinase-3 alpha (P49840 whole entry, the tested form may be a part): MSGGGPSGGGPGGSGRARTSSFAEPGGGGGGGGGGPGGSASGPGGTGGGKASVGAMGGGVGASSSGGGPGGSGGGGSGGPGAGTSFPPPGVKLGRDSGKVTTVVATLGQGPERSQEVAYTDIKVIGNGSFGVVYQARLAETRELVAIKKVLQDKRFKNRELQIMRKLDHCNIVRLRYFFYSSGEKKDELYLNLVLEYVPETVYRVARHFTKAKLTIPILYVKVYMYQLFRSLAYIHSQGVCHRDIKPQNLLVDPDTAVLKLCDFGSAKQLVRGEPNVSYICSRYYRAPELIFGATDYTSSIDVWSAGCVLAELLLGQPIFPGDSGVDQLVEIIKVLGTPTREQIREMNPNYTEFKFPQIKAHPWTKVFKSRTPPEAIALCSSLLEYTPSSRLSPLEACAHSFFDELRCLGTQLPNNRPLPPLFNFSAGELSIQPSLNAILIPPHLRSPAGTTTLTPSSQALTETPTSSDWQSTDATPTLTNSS
Chain of CDK9/cyclin T1 (O60563 whole entry): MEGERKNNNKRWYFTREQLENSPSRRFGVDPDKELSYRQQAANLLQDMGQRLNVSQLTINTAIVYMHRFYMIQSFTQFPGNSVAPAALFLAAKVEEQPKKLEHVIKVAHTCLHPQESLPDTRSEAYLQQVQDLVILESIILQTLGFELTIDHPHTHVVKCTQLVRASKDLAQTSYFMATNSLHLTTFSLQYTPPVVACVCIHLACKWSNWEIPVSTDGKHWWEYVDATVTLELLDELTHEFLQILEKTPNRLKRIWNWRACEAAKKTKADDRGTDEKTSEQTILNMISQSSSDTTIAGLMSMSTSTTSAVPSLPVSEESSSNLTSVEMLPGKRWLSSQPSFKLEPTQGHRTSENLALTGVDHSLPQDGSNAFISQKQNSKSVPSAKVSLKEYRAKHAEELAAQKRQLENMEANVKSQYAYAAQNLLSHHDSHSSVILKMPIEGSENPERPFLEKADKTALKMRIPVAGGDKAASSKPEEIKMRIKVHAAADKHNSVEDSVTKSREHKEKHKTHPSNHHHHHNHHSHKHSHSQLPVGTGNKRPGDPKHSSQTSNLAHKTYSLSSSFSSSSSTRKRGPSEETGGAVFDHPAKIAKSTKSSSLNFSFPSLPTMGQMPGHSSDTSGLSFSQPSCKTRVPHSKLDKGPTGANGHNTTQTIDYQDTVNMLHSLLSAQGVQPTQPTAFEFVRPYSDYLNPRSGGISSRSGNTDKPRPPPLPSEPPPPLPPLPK
Chain of CDK9/cyclin T1 (P50750 whole entry): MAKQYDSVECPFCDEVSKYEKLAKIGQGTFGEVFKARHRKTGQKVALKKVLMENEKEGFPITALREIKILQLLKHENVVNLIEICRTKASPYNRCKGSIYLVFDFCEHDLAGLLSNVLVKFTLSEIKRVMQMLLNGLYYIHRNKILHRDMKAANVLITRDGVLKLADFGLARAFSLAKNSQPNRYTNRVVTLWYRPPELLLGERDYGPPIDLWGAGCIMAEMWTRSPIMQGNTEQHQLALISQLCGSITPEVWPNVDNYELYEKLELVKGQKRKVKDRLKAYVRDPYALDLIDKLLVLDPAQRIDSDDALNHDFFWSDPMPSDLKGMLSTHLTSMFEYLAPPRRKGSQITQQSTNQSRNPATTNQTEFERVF

Row | Compound | IC50 [2] [nM] | IC50 [4] [nM] | IC50 [3] [nM] | also measured
1 | CC(C)(C)c1cnc(CSc2cnc(NC(=O)C3CCN(CC(=O)NCCOCCOCCOCCNc4cccc5c4C(=O)N(C4CCC(=O)NC4=O)C5=O)CC3)s2)o1 (stereo unspecified) | 2700 | 8.2 | 79.1 | inhibition at 90 µM [1]: 75.4%; inhibition at 100 µM [5]: 43.4%; IC50 [6]: 6600 nM; EC50 [7]: 3100 nM; IC50 [8]: 5.6 nM
2 | COc1cc(N2CCOCC2)ccc1Nc1ncc(F)c(Nc2ccccc2NS(C)(=O)=O)n1 | 51.6 | 20200 | 2800 | inhibition [9]: 40.7%; inhibition [10]: < 20%; fold change (FC) [11]: 2.6
3 | CN1CC[C@H](c2c(O)cc(O)c3c(=O)cc(-c4ccccc4Cl)oc23)[C@H](O)C1 [ALVOCIDIB] | 296 |  | 164 | Ki [2]: 239 nM; Ki [3]: 120 nM
4 | O=C(Nc1ccc2c(c1)N(C(=O)Cn1cccc1)c1ccccc1CC2)OC1CCCCC1 |  |  |  | IC50 [7]: 12.8 nM
5 | Cc1oc2ccccc2c1CNC(=O)NCc1cccs1 |  |  |  | IC50 [7]: 260 nM

Now from value to compound, other results behind:

Row | IC50 [2] [nM] | IC50 [4] [nM] | Compound | IC50 [3] [nM] | also measured
6 | 161 | 0.7 | Cn1cc(C2=C(c3cn(CCCSC(=N)N)c4ccccc34)C(=O)NC2=O)c2ccccc21 [BISINDOLYLMALEIMIDE IX] | 0.9 | 
7 | 6500 | 270 | CN1CC[C@@H](c2c(O)cc(O)c3c(=O)cc(-c4ccccc4Cl)oc23)[C@@H]1CO | 706 | 
